In patent US7196094B2, “Farnesyl transferase inhibiting 6-heterocyclylmethyl quinoline and quinazoline derivatives” (Janssen Pharmaceutica, N.V., priority 2000, dated 2007):

melting point | Structure (SMILES)
150 °C | Cn1cncc1C(c1ccc2c(c1)c(-c1cccc(Cl)c1)nc1nnnn12)n1ccnc1-c1ccccc1 (stereo not drawn) [Compound 10, 5-(3-chlorophenyl)-7-[(1-methyl-1H-imidazol-5-yl)(2-phenyl-1H-imidazol-1-yl)methyl]-tetrazolo[1,5-a]quinazoline]
192 °C | Cn1cncc1C(O)(c1ccc2ncccc2c1)c1ccc2c(c1)c(-c1cccc(Cl)c1)nc(=O)n2C (stereo not drawn) [Compound 7, 4-(3-chlorophenyl)-6-[hydroxy(1-methyl-1H-imidazol-5-yl)-6-quinolinylmethyl]-1-methyl-2(1H)-quinazolinone]
188 °C | Cn1cncc1C(O)(c1ccoc1)c1ccc2c(c1)c(-c1cccc(Cl)c1)cc1nnnn12 (stereo not drawn) [Compound 3, 5-(3-chlorophenyl)-α-(3-furanyl)-α-(1-methyl-1H-imidazol-5-yl)-tetrazolo[1,5-a]quinoline-7-methanol]
